In brackets after ≈: the same amount, converted by molar mass.
Key:
Assay type in all cases: cell-based
S. aureus ATCC 29213 = assay: Antimicrobial susceptibility test (MIC), micro-dilution broth; conditions: for MIC S. aureus 29213: S. aureus ATCC 29213
Text: (§1) Bacterial strains. S. aureus ATCC 29213, E. coli MG1655, E. coli BAA-2340, E. coli BAA-2469, E. coli BAA-2471, E. cloacae BAA-2341, E. cloacae BAA-2468, K. pneumoniae BAA-1705, K. pneumoniae BAA-2342, K. pneumoniae BAA-2470, K. pneumoniae BAA-2472, and K. pneumoniae BAA-2473 were obtained from ATCC. E. coli JW5503 and E. coli JW3596 were obtained from the KEIO Collection. E. cloacae ATCC 29893 was provided by W. van der Donk (UIUC). E. coli AR-0346, E. coli AR-0349, E. coli AR-0493, E. coli AR-0495, and K. pneumoniae AR-0347 were obtained from the CDC and FDA AR Isolate Bank. E. coli F20987, E. coli M66623, E. cloacae S28901.1, K. pneumoniae M14723, K. pneumoniae M67198, K. pneumoniae M67297, K. pneumoniae S20595, K. pneumoniae S47889, A. baumannii W41979, A. baumannii F19521, A. baumannii M13100, and A. baumannii WO22 were obtained from the University of Illinois Chicago Medical School. A. baumannii KB304, A. baumannii KB343, and A. baumannii KB357 were provided by J. Quale.
(§2) Antimicrobial susceptibility tests. Susceptibility testing was performed in biological triplicate, using the micro-dilution broth method as outlined by the Clinical and Laboratory Standards Institute. Bacteria were cultured with cation-adjusted Muller-Hinton broth (Sigma-Aldrich, Cat# 90922) in round-bottom 96-well plates (Corning, Cat# 3788). Human serum (pooled gender, 0.2 μm filtered) was purchased from BioIVT (Hicksville, NY).

E. coli ΔtolC (JW5503) = conditions: for MIC E. coli ΔtolC: efflux deficient E. coli ΔtolC; for % @ 0.5 (in brackets after MIC): E. coli ΔTolC, 0.5 μg/mL
Experimental: (§3) The compounds synthesized, shown in Table 1, were evaluated against Gram-positive and Gram-negative reference strains (S. aureus 29213 and E. coli MG1655, respectively), as well as an efflux deficient E. coli strain (ΔtolC, JW5503).
as §1, §2

E. coli MG1655 = assay: Antimicrobial susceptibility test (MIC); conditions: for % @ 32 (in brackets after MIC): E. coli MG1655, 32 μg/mL
Text: as §1, §2

K. pneumoniae AR 0560 = assay: microbe, parasite or virus in culture; conditions: clinical isolate
Experimental: as §2

K. pneumoniae AR 0113 = assay: microbe, parasite or virus in culture; conditions: clinical isolate
Experimental: as §2

A. baumannii AR 0273 = assay: microbe, parasite or virus in culture; conditions: clinical isolate
Experimental: as §2

A. baumannii AR 0313 = assay: microbe, parasite or virus in culture; conditions: clinical isolate
Experimental: as §2

A. baumannii AR 0299 = assay: microbe, parasite or virus in culture; conditions: clinical isolate
Experimental: as §2

E. coli AR 0048 = assay: microbe, parasite or virus in culture; conditions: clinical isolate
Experimental: as §2

A. baumannii AR 0033 = assay: microbe, parasite or virus in culture; conditions: clinical isolate
Experimental: as §2

E. coli AR 0085 = assay: microbe, parasite or virus in culture; conditions: clinical isolate
Experimental: as §2

K. pneumoniae AR 0066 = assay: microbe, parasite or virus in culture; conditions: clinical isolate
Experimental: as §2

K. pneumoniae BAA 2472 = assay: microbe, parasite or virus in culture; conditions: clinical isolate
Experimental: as §3, §1, §2

Row | SMILES | MIC S. aureus 29213 (S. aureus ATCC 29213) | MIC E. coli ΔtolC (E. coli ΔtolC (JW5503)) | MIC E. coli MG1655 (E. coli MG1655) | also measured
1 | Cc1c(CN(C)C(=O)/C=C/c2cnc3c(c2)CC2(CC(N)C2)C(=O)N3)oc2ccccc12 (stereo not shown) | 0.016 µg/mL (≈ 0.0372 µM) | 0.062 µg/mL (≈ 0.144 µM) | 4 µg/mL (≈ 9.29 µM) | –
2 | Cc1c(CN(C)C(=O)/C=C/c2cnc3c(c2)CC(NCCN)C(=O)N3)oc2ccccc12.Cl (stereo not shown) | 0.5 µg/mL | 1 µg/mL | > 32 µg/mL | % @ 0.25 (in brackets after MIC) (S. aureus ATCC 29213; S. aureus ATCC 29213, 0.25 μg/mL): 80%; % @ 0.5 (in brackets after MIC) (E. coli ΔtolC (JW5503)): 50%; % @ 32 (in brackets after MIC) (E. coli MG1655): 35%
3 | Cc1c(CN(C)C(=O)/C=C/c2cnc3c(c2)CC(NCCCN)C(=O)N3)oc2ccccc12.O=CO (stereo not shown) | 0.250 µg/mL | 0.5 µg/mL | >32 µg/mL | –
4 | Cc1c(CN(C)C(=O)/C=C/c2cnc3c(c2)CC(N)C(=O)N3)oc2cccc(F)c12.Cl (stereo not shown) | 0.031 µg/mL | 0.125 µg/mL | 8 µg/mL | –
5 | Cc1c(CN(C)C(=O)/C=C/c2cnc3c(c2)CC(N)C(=O)N3)oc2ccc(F)cc12.Cl (stereo not shown) | 0.125 µg/mL | 1 µg/mL | > 32 µg/mL | % @ 0.062 (in brackets after MIC) (S. aureus ATCC 29213; S. aureus ATCC 29213, 0.062 μg/mL): 60%; % @ 0.5 (in brackets after MIC) (E. coli ΔtolC (JW5503)): 60%; % @ 32 (in brackets after MIC) (E. coli MG1655): 40%
6 | Cc1c(CN(C)C(=O)/C=C/c2cnc3c(c2)CC(N)C(=O)N3)oc2cc(F)ccc12.Cl (stereo not shown) | 0.062 µg/mL | 0.5 µg/mL | > 32 µg/mL | % @ 32 (in brackets after MIC) (E. coli MG1655): 65%
7 | Cc1c(CN(C)C(=O)/C=C/c2cnc3c(c2)CC(N)C(=O)N3)oc2c(F)cccc12.Cl (stereo not shown) | 0.016 µg/mL | 0.062 µg/mL | 8 µg/mL | % @ 4 (in brackets after MIC) (E. coli MG1655; E. coli MG1655, 4 μg/mL): 50-80%
8 | Cc1c(CN(C)C(=O)/C=C/c2cnc3c(c2)CCC(CN)C(=O)N3)oc2ccccc12 (stereo not shown) | – | – | – | MIC K. pneumoniae AR 0560 (K. pneumoniae AR 0560): 16 µg/mL (≈ 38.2 µM); MIC K. pneumoniae AR 0113 (K. pneumoniae AR 0113): 32 µg/mL (≈ 76.5 µM); MIC A. baumannii AR 0273 (A. baumannii AR 0273): 32 µg/mL (≈ 76.5 µM); MIC A. baumannii AR 0313 (A. baumannii AR 0313): 32 µg/mL (≈ 76.5 µM); MIC A. baumannii AR 0299 (A. baumannii AR 0299): 32 µg/mL (≈ 76.5 µM); MIC E. coli AR 0048 (E. coli AR 0048): 16 µg/mL (≈ 38.2 µM); MIC A. baumannii AR 0033 (A. baumannii AR 0033): 16 µg/mL (≈ 38.2 µM); MIC E. coli AR 0085 (E. coli AR 0085): 16 µg/mL (≈ 38.2 µM); MIC K. pneumoniae AR 0066 (K. pneumoniae AR 0066): 32 µg/mL (≈ 76.5 µM); MIC K. pneumoniae BAA 2472 (K. pneumoniae BAA 2472): 32 µg/mL (≈ 76.5 µM)
9 | Cc1c(CN(C)C(=O)/C=C/c2cnc3c(c2)CC2(CC(CN)C2)C(=O)N3)oc2ccccc12 (stereo not shown) | – | – | – | MIC K. pneumoniae AR 0560 (K. pneumoniae AR 0560): 32 µg/mL (≈ 72 µM); MIC K. pneumoniae AR 0113 (K. pneumoniae AR 0113): 32 µg/mL (≈ 72 µM); MIC A. baumannii AR 0273 (A. baumannii AR 0273): >32 µg/mL; MIC A. baumannii AR 0313 (A. baumannii AR 0313): >32 µg/mL; MIC A. baumannii AR 0299 (A. baumannii AR 0299): >32 µg/mL; MIC E. coli AR 0048 (E. coli AR 0048): 32 µg/mL (≈ 72 µM); MIC A. baumannii AR 0033 (A. baumannii AR 0033): 32 µg/mL (≈ 72 µM); MIC E. coli AR 0085 (E. coli AR 0085): 16 µg/mL (≈ 36 µM); MIC K. pneumoniae AR 0066 (K. pneumoniae AR 0066): 32 µg/mL (≈ 72 µM); MIC K. pneumoniae BAA 2472 (K. pneumoniae BAA 2472): 32 µg/mL (≈ 72 µM)
10 | NC1Cc2cc(C=CC(=O)N3CC4C=C(c5ccccc5)CC4C3)cnc2NC1=O (mixture of isomers) | 0.062 µg/mL | 0.062 µg/mL | 16 µg/mL | –
11 | NC1CCc2cc(C=CC(=O)N3CC4C=C(c5ccccc5)CC4C3)cnc2NC1=O (mixture of isomers) | 0.031 µg/mL | 0.062 µg/mL | 8 µg/mL | –
12 | Cc1c(CN(C)C(=O)C=Cc2cnc3c(c2)CC2(CC(CN)C2)C(=O)N3)oc2ccccc12 (mixture of isomers) [(±)-7] | 0.031 µg/mL | 0.125 µg/mL | 16 µg/mL | –
13 | Cc1c(CN(C)C(=O)C=Cc2cnc3c(c2)CC2(CCC(N)CC2)C(=O)N3)oc2ccccc12 (mixture of isomers) [(±)-8] | 0.016 µg/mL | 0.062 µg/mL | 16 µg/mL | –
